Test results reported in patent publication US11427553B2, “Dihydrooxadiazinones” (Bayer Aktiengesellschaft, priority 2017, dated 2022).

Columns and labels:
IGR37 cells = experiment: Assay 1 cell proliferation measurement (CTG, 72 h), IGR37; assay type: cell-based; conditions: Homo sapiens, IGR-37, Cell Titer Glo, read-out: IGR37 IC50 [nM] (melanoma)
SK-MEL-3 cells = experiment: Assay 1 cell proliferation measurement (CTG, 72 h), SK-MEL-3; assay type: cell-based, human; conditions: Homo sapiens, SK-MEL3; Assay 1, 72 h, Cell Titer Glo; read-out: SK-MEL-3 IC50 [nM] (melanoma)
Procedure, shortened: (§1)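 Seed cells, incubate overnight at 37 °C; measure baseline viability (CTG, 0 h plate); dose compound in a 10-step 2.5-fold series (max generally 100 nM final, DMSO 0.3%) for 72 h; read CTG luminescence; fit IC50 with 4 parameters.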

human full length PDE3A = human full length PDE3A (Homo sapiens (Human), UniProt Q14432); experiment: Assay 4 PDE3A enzyme inhibition (3H-cAMP SPA); assay type: biochemical; conditions: Sf9 cell extract
Procedure, shortened: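 In this SPA format, the 60-min room-temperature reaction used 0.025 μCi [8-3H]cAMP and diluted full-length PDE3A from Sf9 cells. Percentage activity was plotted against log compound concentration to derive IC50.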

human full length PDE3B = human full length PDE3B (Homo sapiens (Human), UniProt Q13370); experiment: Assay 5 PDE3B enzyme inhibition (3H-cAMP SPA); assay type: biochemical; conditions: Sf9 cell extract
Procedure, shortened: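 Sf9 cell extract expressing human full-length PDE3B, diluted for linear kinetics (<70% substrate use), in 50 mM Tris/HCl pH 7.5, 8.3 mM MgCl2, 1.7 mM EDTA. [8-3H]cAMP substrate, 60 min at room temperature; stopped with yttrium SPA beads, scintillation counting. IC50 from sigmoidal activity vs log concentration curves.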

HeLa cells = experiment: Assay 1 cell proliferation measurement (CTG, 72 h), HeLa; assay type: cell-based, human; conditions: Homo sapiens, HeLa; Assay 1, 72 h, Cell Titer Glo; read-out: HeLa IC50 [nM] (Cervical cancer)
Procedure, shortened: as §1

[1] = Assay 6 in vitro metabolic stability in cryopreserved human hepatocytes (CL, Fmax); assay type: in vitro ADME; conditions: 1 μM test compound; for Clblood: hepatic in vivo blood clearance calculated (well-stirred) from half-life in cryopreserved human hepatocytes; for Fmax: maximal oral bioavailability calculated from half-life in cryopreserved human hepatocytes
Protocol: Assay 6 Method for Human Cryo Hepatocytes:
Investigation of In Vitro Metabolic Stability in Cryopreserved Human Hepatocytes (Including Calculation of Hepatic In Vivo Blood Clearance (CL) and Maximal Oral Bioavailability (Fmax))
Cryopreserved Hepatocytes (e.g. purchased from Celsis InVitroTechnologies) were briefly thawed, washed with 45 mL pre-warmed in in vitro GRO HT medium and centrifuged for 5 min at 50×g. The cell pellet was resuspended in 5 ml of Krebs-Henseleit […] (KHB). Cell viability was determined by trypan blue exclusion.
For the metabolic stability assay liver cells were distributed in WME containing 5% FCS to glass vials at a density of 1.0×10^6 vital cells/ml. The test compound was added to a final concentration of 1 μM. During incubation, the hepatocyte suspensions were continuously shaken at 580 rpm and aliquots were taken at 2, 8, 16, 30, 45 and 90 min, to which equal volumes of cold methanol were immediately added. Samples were frozen at −20° C. over night, after subsequently centrifuged for 15 minutes at 3000 rpm and the supernatant was analyzed with an Agilent 1290 HPLC-system with LCMS/MS detection.
The half-life of a test compound was determined from the concentration-time plot. From the half-life the intrinsic clearances were calculated. Together with the additional parameters liver blood flow, amount of liver cells in vivo and in vitro. The hepatic in vivo blood clearance (CL) and the maximal oral bioavailability (Fmax) was calculated.

human full length PDE3A, sequence (Q14432 whole entry): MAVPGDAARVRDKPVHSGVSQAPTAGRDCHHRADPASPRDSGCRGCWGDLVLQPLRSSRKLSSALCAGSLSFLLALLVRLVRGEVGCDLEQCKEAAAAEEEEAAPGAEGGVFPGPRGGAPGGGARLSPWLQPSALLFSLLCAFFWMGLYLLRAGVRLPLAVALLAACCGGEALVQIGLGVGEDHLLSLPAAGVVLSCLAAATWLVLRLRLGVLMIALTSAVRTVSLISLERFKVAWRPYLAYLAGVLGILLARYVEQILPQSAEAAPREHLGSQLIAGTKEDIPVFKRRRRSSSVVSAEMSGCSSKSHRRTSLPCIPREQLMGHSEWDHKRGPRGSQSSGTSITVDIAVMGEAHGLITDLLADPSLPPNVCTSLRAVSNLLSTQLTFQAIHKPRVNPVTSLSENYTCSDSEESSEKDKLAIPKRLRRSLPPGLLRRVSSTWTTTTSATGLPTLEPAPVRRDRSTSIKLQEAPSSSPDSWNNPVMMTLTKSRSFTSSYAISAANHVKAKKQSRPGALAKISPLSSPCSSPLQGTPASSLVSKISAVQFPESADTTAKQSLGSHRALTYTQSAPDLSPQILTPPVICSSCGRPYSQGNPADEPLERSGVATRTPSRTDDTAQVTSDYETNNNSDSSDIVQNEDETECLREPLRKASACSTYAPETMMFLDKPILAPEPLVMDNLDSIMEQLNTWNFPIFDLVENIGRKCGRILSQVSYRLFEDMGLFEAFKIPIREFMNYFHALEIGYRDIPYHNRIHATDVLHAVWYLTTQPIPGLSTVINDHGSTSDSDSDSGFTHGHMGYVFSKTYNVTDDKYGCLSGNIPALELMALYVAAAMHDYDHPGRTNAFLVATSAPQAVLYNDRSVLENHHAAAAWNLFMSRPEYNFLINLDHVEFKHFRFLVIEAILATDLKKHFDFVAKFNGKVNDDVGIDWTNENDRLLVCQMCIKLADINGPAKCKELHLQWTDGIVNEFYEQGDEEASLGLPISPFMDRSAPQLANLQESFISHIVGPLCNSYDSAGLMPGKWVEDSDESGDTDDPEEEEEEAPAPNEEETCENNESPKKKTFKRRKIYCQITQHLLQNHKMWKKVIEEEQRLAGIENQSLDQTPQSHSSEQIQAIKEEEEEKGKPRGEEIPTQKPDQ
human full length PDE3B, sequence (Q13370 whole entry): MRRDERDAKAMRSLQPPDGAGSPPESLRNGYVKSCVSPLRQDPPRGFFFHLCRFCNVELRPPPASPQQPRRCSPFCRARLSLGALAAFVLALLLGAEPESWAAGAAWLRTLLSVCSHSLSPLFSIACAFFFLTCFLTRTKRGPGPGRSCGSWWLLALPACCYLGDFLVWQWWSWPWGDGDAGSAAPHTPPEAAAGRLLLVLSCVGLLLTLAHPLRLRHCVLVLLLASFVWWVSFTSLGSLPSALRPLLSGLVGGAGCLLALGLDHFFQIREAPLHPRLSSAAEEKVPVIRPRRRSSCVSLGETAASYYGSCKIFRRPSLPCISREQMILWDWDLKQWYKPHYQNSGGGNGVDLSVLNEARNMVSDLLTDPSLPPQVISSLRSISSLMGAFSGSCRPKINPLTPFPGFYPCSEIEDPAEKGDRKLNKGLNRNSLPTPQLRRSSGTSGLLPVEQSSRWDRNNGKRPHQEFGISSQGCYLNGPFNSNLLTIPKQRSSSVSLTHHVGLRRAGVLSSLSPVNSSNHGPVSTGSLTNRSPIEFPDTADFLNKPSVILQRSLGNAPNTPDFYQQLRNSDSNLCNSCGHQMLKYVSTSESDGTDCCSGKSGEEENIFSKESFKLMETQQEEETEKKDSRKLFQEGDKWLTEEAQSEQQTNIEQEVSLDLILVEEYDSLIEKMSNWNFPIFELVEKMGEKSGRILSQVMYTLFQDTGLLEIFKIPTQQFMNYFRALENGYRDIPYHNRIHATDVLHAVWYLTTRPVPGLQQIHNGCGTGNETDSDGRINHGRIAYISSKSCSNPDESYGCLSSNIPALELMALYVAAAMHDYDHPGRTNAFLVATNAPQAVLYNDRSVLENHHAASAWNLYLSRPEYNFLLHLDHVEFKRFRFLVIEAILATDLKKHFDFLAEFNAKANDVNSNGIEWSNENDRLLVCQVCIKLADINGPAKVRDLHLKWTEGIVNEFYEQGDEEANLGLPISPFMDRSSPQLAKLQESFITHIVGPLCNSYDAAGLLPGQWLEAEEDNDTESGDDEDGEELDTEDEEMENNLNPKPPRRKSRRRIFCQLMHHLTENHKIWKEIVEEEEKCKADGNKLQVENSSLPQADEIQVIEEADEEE

SMILES	IC50 (IGR37 cells) [nM]	IC50 (SK-MEL-3 cells) [nM]	IC50 (human full length PDE3A) [µM]	IC50 (human full length PDE3B) [µM]	IC50 (HeLa cells) [nM]	Clblood [1] [mL/min/kg]	Fmax [1] [%]
CC1OC(=O)NN=C1c1ccc(N2CCOCC2)c(C(F)(F)F)c1 (racemic) [Example 126, (rac)-6-Methyl-5-(4-morpholino-3-(trifluoromethyl)phenyl)-3,6-dihydro-2H-1,3,4-oxadiazin-2-one]	2	1	0.012	0.008	1		
CC1OC(=O)NN=C1c1ccc(-c2cnn(C(F)F)c2)c(C(F)(F)F)c1 (racemic) [Example 191, (rac)-5-{4-[1-(Difluoromethyl)-1H-pyrazol-4-yl]-3-(trifluoromethyl)phenyl}-6-methyl-3,6-dihydro-2H-1,3,4-oxadiazin-2-one]	1	1	0.048	0.057	0.4		
CC1OC(=O)NN=C1c1ccc(-c2ccc(F)cc2)c(C(F)(F)F)c1 (racemic) [Example 192, (rac)-5-[4′-Fluoro-2-(trifluoromethyl)[1,1′-biphenyl]-4-yl]-6-methyl-3,6-dihydro-2H-1,3,4-oxadiazin-2-one]	7	6	0.32	0.12	2		
CC(Nc1ccc(C2=NNC(=O)OC2)cc1C(F)(F)F)C1CC1 (racemic) [Example 240, (rac)-5-{4-[(1-cyclopropylethyl)amino]-3-(trifluoromethyl)phenyl}-3,6-dihydro-2H-1,3,4-oxadiazin-2-one]	10	12	0.18	0.26	3		
O=C1NN=C(c2ccc(-c3ccc(F)cc3)c(OC(F)(F)F)c2)CO1 [Example 76, 5-[4′-Fluoro-2-(trifluoromethoxy)biphenyl-4-yl]-3,6-dihydro-2H-1,3,4-oxadiazin-2-one]	13	13	0.225	0.25	6	4.5	80
C[C@@H]1OC(=O)NN=C1c1ccc(-c2ccncc2)c(C(F)(F)F)c1 [Example 166, (6S)-6-Methyl-5-[4-(pyridin-4-yl)-3-(trifluoromethyl)phenyl]-3,6-dihydro-2H-1,3,4-oxadiazin-2-one]	1	1	0.069	0.042	1		
C[C@@H]1OC(=O)NN=C1c1ccc(-c2ccc(O)cc2)c(C(F)(F)F)c1 [Example 174, (6S)-5-[4′-Hydroxy-2-(trifluoromethyl)[1,1′-biphenyl]-4-yl]-6-methyl-3,6-dihydro-2H-1,3,4-oxadiazin-2-one]	1	1	0.027	0.016	1		
C[C@@H]1OC(=O)NN=C1c1ccc(CN2CCOCC2)c(C(F)(F)F)c1 [Example 196, (6S)-6-Methyl-5-{4-[(morpholin-4-yl)methyl]-3-(trifluoromethyl)phenyl}-3,6-dihydro-2H-1,3,4-oxadiazin-2-one]	33	31	0.81	0.79	15		
O=C1NN=C(c2ccc(NCc3cnccn3)c(C(F)(F)F)c2)CO1 [Example 226, 5-[4-{[(Pyrazin-2-yl)methyl]amino}-3-(trifluoromethyl)phenyl]-3,6-dihydro-2H-1,3,4-oxadiazin-2-one]	2	2	0.128	0.187	1		
O=C1NN=C(c2ccc(N3CCC(F)(F)CC3)c(C(F)(F)F)c2)CO1 [Example 232, 5-[4-(4,4-Difluoropiperidin-1-yl)-3-(trifluoromethyl)phenyl]-3,6-dihydro-2H-1,3,4-oxadiazin-2-one]	4	5			2		
N#CC1CCN(c2ccc(C3=NNC(=O)OC3)cc2C(F)(F)F)CC1 [Example 239, 1-[4-(2-Oxo-3,6-dihydro-2H-1,3,4-oxadiazin-5-yl)-2-(trifluoromethyl)phenyl]piperidine-4-carbonitrile]	1	1	0.027	0.026	0.3		
CC1(C#N)CN(c2ccc(C3=NNC(=O)OC3)cc2C(F)(F)F)C1 [Example 251, 3-Methyl-1-[4-(2-oxo-3,6-dihydro-2H-1,3,4-oxadiazin-5-yl)-2-(trifluoromethyl)phenyl]azetidine-3-carbonitrile]	4	5	0.061	0.097	2		
CCC1(O)CCN(c2ccc(C3=NNC(=O)OC3)cc2C(F)(F)F)CC1 [Example 253, 5-[4-(4-Ethyl-4-hydroxypiperidin-1-yl)-3-(trifluoromethyl)phenyl]-3,6-dihydro-2H-1,3,4-oxadiazin-2-one]	5	40	0.19	0.155	1		
CCOCCNc1ccc(C2=NNC(=O)OC2)cc1C(F)(F)F [Example 260, 5-{4-[(2-Ethoxyethyl)amino]-3-(trifluoromethyl)phenyl}-3,6-dihydro-2H-1,3,4-oxadiazin-2-one]		3	0.048	0.17	1	14.3	35
C[C@@H]1OC(=O)NN=C1c1ccc(-n2cnc(C(F)(F)F)c2)c(C(F)(F)F)c1 [Example 266, (6S)-6-Methyl-5-{3-(trifluoromethyl)-4-[4-(trifluoromethyl)-1H-imidazol-1-yl]phenyl}-3,6-dihydro-2H-1,3,4-oxadiazin-2-one]	65	35	> 1	0.93	19		
CC(C)Cc1ccc(C2=NNC(=O)OC2)cc1C(F)(F)F [Example 268, 5-[4-(2-Methylpropyl)-3-(trifluoromethyl)phenyl]-3,6-dihydro-2H-1,3,4-oxadiazin-2-one]		3	0.138	0.11	1	5	78
CC(C)c1ccc(C2=NNC(=O)OC2)cc1C(F)(F)F [Example 270, 5-[4-(Propan-2-yl)-3-(trifluoromethyl)phenyl]-3,6-dihydro-2H-1,3,4-oxadiazin-2-one]		15	0.055	0.17	9	<0.17	100
CNc1ccc(C2=NNC(=O)OC2)cc1C(F)(F)F [Example 276, 5-[4-(Methylamino)-3-(trifluoromethyl)phenyl]-3,6-dihydro-2H-1,3,4-oxadiazin-2-one]	50	49	0.079	0.24	27		
C[C@@H]1OC(=O)NN=C1c1ccc(N2CC(F)(F)C2)c(C(F)(F)F)c1 [Example 279, (6S)-5-[4-(3,3-Difluoroazetidin-1-yl)-3-(trifluoromethyl)phenyl]-6-methyl-3,6-dihydro-2H-1,3,4-oxadiazin-2-one]	2	2			1		
C[C@@H]1OC(=O)NN=C1c1ccc(N2CC(C)(O)C2)c(C(F)(F)F)c1 [Example 280, (6S)-5-[4-(3-Hydroxy-3-methylazetidin-1-yl)-3-(trifluoromethyl)phenyl]-6-methyl-3,6-dihydro-2H-1,3,4-oxadiazin-2-one]	0.4	0.4			0.1		
